Test results taken from a melting point compilation (Tetko et al.; mined from patent text by program, amines drawn as free bases though some values may be those of a salt).

Compound | melting point [°C]
O=S(=O)(NCCNCC=Cc1ccc(Cl)cc1)c1cccc2cnccc12 | 120 to 123
CC(=O)N(C1(c2ccc(OCc3ccc4ccccc4n3)cc2)CCCC1)S(=O)(=O)c1ccccc1C | 80
CCCCc1nc(-c2ccco2)n[nH]1 | 73 to 74
COC(=O)CCc1ccc(-n2cn[nH]c2=O)cc1 | 174 to 176
NC(=O)c1cnn2cccc2c1Nc1ccccc1 | 247
C#CC1(COCc2ccccc2)OC(n2ccc(=O)[nH]c2=O)C(OC(C)=O)C1OCc1ccccc1 (stereo not given) | 105 to 106
CCN(CC)CC/C=C/c1cc2ncc(C#N)c(Nc3ccc(Sc4nccn4C)c(Cl)c3)c2cc1OC | 194 to 202
Nc1nc(NC2CC2c2ccccc2)c2ncn(C3C=CC(CO)C3)c2n1 (stereo not given) | 188 to 190
CCOC(=O)C1=C(NC(=O)Nc2cc(C(=O)OC(C)C)c(F)cc2Br)CCC1 | 166 to 168
COC(=O)c1cc(OCc2ccc3ccccc3n2)n(C(C)C)n1 | 106 to 107
COc1cc2c(cc1OC)C(C(C#N)SCCO)=NCC2 (stereo not given) | 138 to 140
CN(CC(=O)NC1(c2ccccc2Cl)C(=O)Nc2ccc(Cl)cc21)CC(=O)OC(C)(C)C (stereo not given) | 200
NNC(=O)c1ncnc2[nH]ccc12 | 252 to 254
CCCCSc1ccc(C(O)CNC2CCCCC2)cc1C (stereo not given) | 136
O=C(Nc1ccccc1)[NH+]([O-])Cc1ccncc1 (stereo not given) | 174
OCCNCCNc1nnc(NCCNCCO)c2cc3ccccc3cc12 | 129 to 131
CS(=O)(=O)Nc1cc(N)ccc1Oc1ccccc1 | 112 to 114
C[C@H]1COc2c(N3C[C@@H]4CCOC[C@@]4(N)C3)c(F)cc3c(=O)c(C(=O)O)cn1c23 | > 300
ON=C(c1ccc2c(c1)OCO2)C(F)(F)F | 96
O=C(Cn1cc(-c2ccccc2)c(-c2ccccc2)n1)NCCN1CCCCC1 | 120 to 124
CN1CCN(c2cccc3ccc(NC(=O)c4ccccc4)cc23)CC1 | 173 to 175
O=C(O)CCCCCSc1ccc(-c2ccc(Cl)cc2)cc1 | 156 to 157
CCOC(=O)Cc1nc(-c2ccc(Cl)cc2)oc1CC(C)C | 56 to 57
OCCN1CCC(Nc2nc3cncnc3n2Cc2ccc(F)cc2)CC1 | 159

Compound | melting point [°C]
O=S(=O)(CCc1ccc(-c2ccccc2)cc1)N1CC(CN2CCCC2)Cc2ccccc21 (stereo not given) | 107 to 110
CCCCc1ncc(C(=O)OCC)c(N(C)Cc2ccc(-c3ccccc3-c3nnn[nH]3)cc2)n1 | 159 to 161
C=CC(=O)NC(C)(C)COc1ccc(Cl)cc1 | 95 to 96
CCCCOc1c(N(C)C(=O)OC(C)(C)C)n(CC(C)(C)C)c(=O)c2ccc(CC(N)=O)cc12 | 114 to 115
CCOC(=O)CONC(=S)Nc1cc(Cl)ccc1C | 117 to 119
Nc1nc(N)c2c(n1)CCC(Cc1ccccc1Cl)C2 (stereo not given) | 134
CCCCCCCCCCCC(=O)Oc1ccc2[nH]c3c(C)c4ccncc4c(C)c3c2c1 | 188 to 190
CCN(CC)C(=O)c1cc2cc(Br)ccc2o1 | 79 to 81
O=CNNc1ccnc2c(NC(=O)c3c(Cl)cccc3Cl)cccc12 | 261 to 263
CC(C)(COc1ccc([N+](=O)[O-])cc1)c1ccccc1 | 79 to 80
Cc1cccc(C(=O)NC(CC(C)C)C(=O)O)c1SSc1c(C)cccc1C(=O)NC(CC(C)C)C(=O)O (stereo not given) | 210 to 211
COc1cc(Cc2ccc3nc(N)nc(N)c3c2)cc(OC)c1OC | 219 to 221
Cc1ccc(NC(=O)c2ccc(CN3C(=O)C4(COc5cc6c(cc54)CCO6)c4ccccc43)cc2)c(C)c1 (stereo not given) | 249 to 251
O=C(COc1cc(C(=O)N2CCOCC2)ccc1[N+](=O)[O-])c1ccccc1 | 172 to 173
c1cnc2c(c1)NCc1cccn1C2 | 171 to 172
CN1CCC(O)(C#N)CC1 | 130 to 133
Cn1nc(-c2c(F)cccc2Cl)nc1-c1ccc(F)c(-c2ccc(OC(F)(F)F)cc2)c1 | 117 to 119
Cn1c(COc2ccc(CC3SC(=O)NC3=O)cc2)nc2ccc(Oc3ccc(NC(=S)NCc4ccccc4)cc3)cc21 (stereo not given) | 175 to 177
c1ccc(CN2CCc3[nH]c4ccc(Oc5ccccc5)cc4c3C2)cc1 | 102
CCNCC1CCN(c2c(F)cc3c(=O)c(C(=O)O)cn(C4CC4)c3c2OC)C1 (stereo not given) | 217 to 219
CNc1cc(N2CCN(C(=O)N3CCN(S(=O)(=O)c4ccc(Br)cc4)CC3)CC2)ncn1 | 219 to 221
NC(=O)c1csc(-c2cc3c(Oc4ccc(Cl)cc4)cncc3s2)n1 | 215 to 218
CCN1C(=O)C(C)(C)C(=O)N(C)c2cc(CN(CCn3ccc4oc(C)cc4c3=O)Cc3cccnc3COC)ccc21 | 127 to 129
CC(=O)Oc1ccc(C=CC(=O)C=Cc2ccc(OC(C)=O)c(OC(C)=O)c2)cc1OC(C)=O | 70 to 72

Compound | melting point [°C]
Cc1ncc(CSC(=O)c2cccc(C(=O)SCc3cnc(C)c4c3COC(C)(C)O4)c2)c2c1OC(C)(C)OC2 | 125 to 127
N#Cc1ccc(-c2nc(CCl)co2)s1 | 146 to 147
Clc1ccc(C(Cn2ccnc2)SCCC=Cc2ccccc2)c(Cl)c1 (stereo not given) | 111 to 113
CCOC(=O)Cc1csc(-c2ncccc2O)n1 | 85.5 to 86.5
COc1ccc(N2CCN(n3ccnc3SC)CC2)cc1 | 140
Cc1cc2c(c(C)c1N)C(c1ccccc1)CO2 (stereo not given) | 127 to 128
O=C(Cc1cc(F)cc(F)c1)N[C@@H](Cc1cc2ccccc2[nH]1)C(=O)N[C@@H]1C(=O)Nc2ccccc2S[C@@H]1c1ccccc1 | 85 to 90
Cn1nc2nnsc2c1C(N)=O | 183 to 184
C#CCOc1ccc(Br)cn1 | 58 to 60
COc1ccc(-n2c(CC(=O)O)c(C(=O)O)c3cc(Oc4cc(C(F)(F)F)cc(C(F)(F)F)c4)ccc32)cc1 | 232
CCN(CC)C(=O)Cc1ccc(NC(=O)/C=C/c2cnn(C)c2-c2ccc(F)cc2)cc1 | 175 to 176
CCOC(=O)c1cnn(-c2ccc(OC)cc2)c1N | 209 to 211
Cc1ccccc1CNC(=O)c1ccc2n1Cc1ccccc1N(C(=O)c1ccc(-c3ccccc3C)c(C)c1)C2 | 128 to 130
COC(=O)[C@H](Cc1ccc(NC(=S)NCCc2ccccc2)cc1)NC(=O)[C@@H]1CCCN1S(=O)(=O)c1ccc(C)cc1 | 76 to 81
CCOC(=O)Cc1ccc(C(=O)c2ccc(C)cc2)n1C | 70 to 71
COc1ccc([N+](=O)[O-])c(NCCO)n1 | 121 to 122
O=C(O)COc1cccc(-n2nc(-c3ccc(F)cc3)c3cccnc32)c1 | 225 to 226
O=[N+]([O-])c1cnc2cccnc2c1NCc1ccccc1 | 127 to 129
Cc1cc(N2C=CC(=O)CC2)nn2cnnc12 | 264 to 266
O=C1Nc2cc(C(F)(F)F)ccc2N2CCN(CCc3ccncc3)CC12 (stereo not given) | 204 to 206
CCOC(=O)c1cnc2c(c1O)CCCCCC2 | 219 to 222
CCN1C(=O)C(C)(C)C(=O)N(C)c2cc(OCCCn3c(=O)c(-c4ccccc4)c(Cl)c4ccccc43)ccc21 | 122 to 128
